Patent US20230113037A1 (Bayer Aktiengesellschaft, priority 2019, published 2023)

Legend:
[1] = biological target: T1, AHR (Homo sapiens, UniProt P35869); experiment: In vitro assay 1: antagonism in human cell line (AHR transactivation, firefly luciferase reporter, kynurenic acid prestimulated); assay type: cell-based; details: AHR Antagonism Human IC50 [M]
T1 construct: U87 MG glioblastoma cells (ATCC #HTB-14) endogenously expressing AHR; endogenous in cells; host or cells: U87 MG glioblastoma cells (ATCC #HTB-14)
T1 sequence (P35869 11-848): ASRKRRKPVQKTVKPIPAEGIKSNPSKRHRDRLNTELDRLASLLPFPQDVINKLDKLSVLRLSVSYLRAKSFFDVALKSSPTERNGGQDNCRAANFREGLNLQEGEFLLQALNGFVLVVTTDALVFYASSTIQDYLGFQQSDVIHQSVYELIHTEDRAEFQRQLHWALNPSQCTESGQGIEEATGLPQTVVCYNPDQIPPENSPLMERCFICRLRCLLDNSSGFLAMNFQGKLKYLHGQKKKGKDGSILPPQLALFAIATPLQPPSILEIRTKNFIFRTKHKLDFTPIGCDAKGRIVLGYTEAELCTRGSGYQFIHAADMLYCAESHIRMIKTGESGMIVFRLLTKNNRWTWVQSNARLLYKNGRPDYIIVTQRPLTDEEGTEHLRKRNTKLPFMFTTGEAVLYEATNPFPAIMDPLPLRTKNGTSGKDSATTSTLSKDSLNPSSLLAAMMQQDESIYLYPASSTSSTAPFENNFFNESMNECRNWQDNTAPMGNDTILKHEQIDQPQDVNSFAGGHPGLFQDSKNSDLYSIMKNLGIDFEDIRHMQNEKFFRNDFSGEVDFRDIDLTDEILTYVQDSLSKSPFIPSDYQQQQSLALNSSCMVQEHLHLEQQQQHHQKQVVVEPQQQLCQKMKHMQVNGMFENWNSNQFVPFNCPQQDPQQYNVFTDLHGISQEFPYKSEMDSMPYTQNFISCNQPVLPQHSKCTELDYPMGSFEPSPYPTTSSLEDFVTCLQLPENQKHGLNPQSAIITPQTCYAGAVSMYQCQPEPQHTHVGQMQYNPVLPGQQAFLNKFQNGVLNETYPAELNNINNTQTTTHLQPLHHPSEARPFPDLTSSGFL
Method in brief: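 Antagonism is measured against kynurenic acid prestimulation in U87 MG glioblastoma cells carrying stable DRE-luciferase and Renilla reporters. Positive inhibition control: 150 μM kynurenic acid with 5 μM staurosporine. Values are normalized to controls; repeats are averaged or given as medians.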

[2] = biological target: T2, AHR (Mus musculus, UniProt P30561); experiment: In vitro assay 3: antagonism in mouse cell line (AHR transactivation, firefly luciferase reporter, kynurenic acid prestimulated); assay type: cell-based; details: mouse Hepa 1c1c7 cells, 200 μM kynurenic acid, 20 hours, read-out: AHR Antagonism Mouse IC50
T2 sequence (P30561 1-848 P471L/N533S/M589L): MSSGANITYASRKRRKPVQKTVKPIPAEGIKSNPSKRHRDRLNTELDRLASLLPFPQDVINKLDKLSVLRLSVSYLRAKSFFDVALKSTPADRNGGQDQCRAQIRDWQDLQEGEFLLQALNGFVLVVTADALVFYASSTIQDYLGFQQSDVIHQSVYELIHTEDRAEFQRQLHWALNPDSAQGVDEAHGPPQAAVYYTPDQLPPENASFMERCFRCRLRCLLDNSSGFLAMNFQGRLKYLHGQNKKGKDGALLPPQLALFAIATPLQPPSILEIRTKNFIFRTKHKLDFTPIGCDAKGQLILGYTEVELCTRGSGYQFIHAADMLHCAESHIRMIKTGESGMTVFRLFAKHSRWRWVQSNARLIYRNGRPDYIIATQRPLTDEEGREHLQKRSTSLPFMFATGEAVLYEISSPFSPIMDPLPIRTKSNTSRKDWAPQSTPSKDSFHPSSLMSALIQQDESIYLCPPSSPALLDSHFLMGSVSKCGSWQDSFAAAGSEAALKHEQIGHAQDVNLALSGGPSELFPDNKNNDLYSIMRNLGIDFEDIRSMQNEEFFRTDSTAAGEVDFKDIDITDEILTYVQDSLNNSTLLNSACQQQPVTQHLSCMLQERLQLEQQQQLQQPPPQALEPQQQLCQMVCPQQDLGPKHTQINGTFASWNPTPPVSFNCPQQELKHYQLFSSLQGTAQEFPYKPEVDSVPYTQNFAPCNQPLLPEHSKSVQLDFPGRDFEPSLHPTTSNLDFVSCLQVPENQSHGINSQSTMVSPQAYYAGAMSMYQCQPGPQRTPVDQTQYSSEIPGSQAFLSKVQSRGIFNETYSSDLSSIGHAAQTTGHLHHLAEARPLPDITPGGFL
Method in brief: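 Luminescence from an AHR-dependent DRE-luciferase reporter, stably integrated in mouse cells, quantifies blockade of kynurenic acid-driven activation. Unstimulated cells mark maximal inhibition; normalization uses both control types, and multiply tested compounds carry mean or median values.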

SMILES	IC50 [1] [M]	IC50 [2] [nM]
O=C1NCCNC[C@H]1Nc1nc2c(Cl)cccc2c2nc(-c3ccc(F)cc3)nn12 [Example 420, (6R)-6-{[7-chloro-2-(4-fluorophenyl)[1,2,4]triazolo[1,5-c]quinazolin-5-yl]amino]-1,4-diazepan-5-one]	9.36e-10	0.887
Cn1cc(-c2nc3c4cccc(C(F)(F)F)c4nc(N[C@@H]4CNCCNC4=O)n3n2)cn1 [Example 425, (6R)-6-{[2-(1-methyl-1H-pyrazol-4-yl)-7-(trifluoromethyl)[1,2,4]triazolo[1,5-c]quinazolin-5-yl]amino}-1,4-diazepan-5-one]	6.84e-09	23.9
Cn1cc(-c2nc3c4cccc(F)c4nc(N[C@@H]4CNCCNC4=O)n3n2)cn1 [Example 428]	2.44e-06	561
COc1ccc(-c2nc3c4cccc(C(C)C)c4nc(N[C@@H]4CNCCNC4=O)n3n2)cc1 [Example 429, (6R)-6-{[2-(4-methoxyphenyl)-7-(propan-2-yl)[1,2,4]triazolo[1,5-c]quinazolin-5-yl]amino}-1,4-diazepan-5-one]	7.8e-09	70.9
COCCn1cc(-c2nc3c4ccccc4nc(N[C@@H]4CCCCNC4=O)n3n2)cn1 [Example 432, (3R)-3-({2-[1-(2-methoxyethyl)-1H-pyrazol-4-yl][1,2,4]triazolo[1,5-c]quinazolin-5-yl}amino)azepan-2-one]	6.11e-08	18.1
CC[C@H](Nc1nc2ccccc2c2nc(-c3ccc(OC)cc3)nn12)C(N)=O [Example 434, (2S)-2-{[2-(4-methoxyphenyl)[1,2,4]triazolo[1,5-c]quinazolin-5-yl]amino}butanamide]	6.43e-08	75
Cn1cc(-c2nc3c4ccccc4nc(N[C@@H]4CCCCNC4=O)n3n2)nn1 [Example 435]	1.3e-07	164
N#Cc1ccc(-c2nc3c4ccccc4nc(N[C@H]4CCCCNC4=O)n3n2)cc1 [Example 437, 4-(5-{[(3S)-2-oxoazepan-3-yl]amino}[1,2,4]triazolo[1,5-c]quinazolin-2-yl)benzonitrile]	3.65e-08	7.87
O=C1NCCCC[C@H]1Nc1nc2ccccc2c2nc(-c3ccc(Br)cc3OC(F)(F)F)nn12 [Example 440, (3R)-3-({2-[4-bromo-2-(trifluoromethoxy)phenyl][1,2,4]triazolo[1,5-c]quinazolin-5-yl}amino)azepan-2-one]	2.43e-09	0.642
CC[C@H](Nc1nc2ccccc2c2nc(-c3cccc(C#N)c3)nn12)C(N)=O [Example 442, (2S)-2-{[2-(3-cyanophenyl)[1,2,4]triazolo[1,5-c]quinazolin-5-yl]amino}butanamide]	4.89e-06	264
N#Cc1cccc(-c2nc3c4ccccc4nc(NC4CCCCCNC4=O)n3n2)c1 (stereo not drawn) [Example 443, 3-(5-{[2-oxoazocan-3-yl]amino}[1,2,4]triazolo[1,5-c]quinazolin-2-yl)benzonitrile]	1.02e-08	0.672

Continued by falling IC50 [1], values first:

IC50 [1] [M]	IC50 [2] [nM]	SMILES
1.11e-06	7300	Cn1cc(-c2nc3c4c(Cl)cccc4nc(N[C@@H]4CNCCNC4=O)n3n2)cn1 [Example 417]
2.9e-07	130	CCCCNC(=O)CNc1nc2ccccc2c2nc(-c3ccc(S(C)(=O)=O)cc3)nn12 [Example 438, N-butyl-N^2-{2-[4-(methanesulfonyl)phenyl][1,2,4]triazolo[1,5-c]quinazolin-5-yl}glycinamide]
1.36e-07	29.3	CCCCNC(=O)[C@H](C)Nc1nc2ccccc2c2nc(-c3cccc(C#N)c3)nn12 [Example 441, N-butyl-N^2-[2-(3-cyanophenyl)[1,2,4]triazolo[1,5-c]quinazolin-5-yl]alaninamide]
4.52e-08	27	CCCNC(=O)[C@@H](C)Nc1nc2ccccc2c2nc(-c3ccc(S(C)(=O)=O)cc3)nn12 [Example 439, N^2-{2-[4-(methanesulfonyl)phenyl][1,2,4]triazolo[1,5-c]quinazolin-5-yl}-N-propyl-D-alaninamide]
1.84e-08	14.3	COc1ccc(-c2nc3c4cccc(F)c4nc(N[C@@H]4CNCCNC4=O)n3n2)cc1 [Example 426, (6R)-6-{[7-fluoro-2-(4-methoxyphenyl)[1,2,4]triazolo[1,5-c]quinazolin-5-yl]amino}-1,4-diazepan-5-one]
1.43e-08	60.6	COc1ccc(-c2nc3c4cccc(C5(C(F)(F)F)CC5)c4nc(N[C@@H]4CNCCNC4=O)n3n2)cc1 [Example 431, (6R)-6-({2-(4-methoxyphenyl)-7-[1-(trifluoromethyl)cyclopropyl][1,2,4]triazolo[1,5-c]quinazolin-5-yl}amino)-1,4-diazepan-5-one]
3.49e-09	3.46	O=C1NCCNC[C@H]1Nc1nc2c(Cl)cccc2c2nc(-c3cccc(F)c3)nn12 [Example 419, (6R)-6-{[7-chloro-2-(3-fluorophenyl)[1,2,4]triazolo[1,5-c]quinazolin-5-yl]amino}-1,4-diazepan-5-one]
2.92e-09	0.51	CN(C)c1cccc(-c2nc3c4ccccc4nc(N[C@@H]4CCCCNC4=O)n3n2)c1 [Example 446, (3R)-3-({2-[3-(dimethylamino)phenyl][1,2,4]triazolo[1,5-c]quinazolin-5-yl}amino)azepan-2-one]
1.64e-09	0.647	COc1ccc(-c2nc3c4ccccc4nc(NC4CCCCCNC4=O)n3n2)cc1 (stereo not drawn) [Example 433, 3-{[2-(4-methoxyphenyl)[1,2,4]triazolo[1,5-c]quinazolin-5-yl]amino}azocan-2-one]
7.09e-10	0.69	COc1ccc(-c2nc3c4cccc(Cl)c4nc(N[C@@H]4CNCCNC4=O)n3n2)cc1 [Example 421, (6R)-6-{[7-chloro-2-(4-methoxyphenyl)[1,2,4]triazolo[1,5-c]quinazolin-5-yl]amino)-1,4-diazepan-5-one]
5.89e-10	1.69	O=C1NCCNC[C@H]1Nc1nc2c(C(F)(F)F)cccc2c2nc(-c3cccc(F)c3)nn12 [Example 424, (6R)-6-{[2-(3-fluorophenyl)-7-(trifluoromethyl)[1,2,4]triazolo[1,5-c]quinazolin-5-yl]amino}-1,4-diazepan-5-one]
3.61e-10	0.927	COc1ccc(-c2nc3c4cccc(C(F)(F)F)c4nc(N[C@@H]4CNCCNC4=O)n3n2)cc1 [Example 422, (6R)-6-{[2-(4-methoxyphenyl)-7-(trifluoromethyl)[1,2,4]triazolo[1,5-c]quinazolin-5-yl]amino}-1,4-diazepan-5-one]
2.81e-10	0.349	O=C1NCCNC[C@H]1Nc1nc2c(C(F)(F)F)cccc2c2nc(-c3ccc(F)cc3)nn12 [Example 423, (6R)-6-{[2-(4-fluorophenyl)-7-(trifluoromethyl)[1,2,4]triazolo[1,5-c]quinazolin-5-yl]amino}-1,4-diazepan-5-one]
